Measurements published in US20120309739A1, “AKT / PKB INHIBITORS” (ALMAC DISCOVERY LIMITED, priority 2009, published 2012).
Structures can show the parent of a compound that is named as a salt.

Assays:
AKT1 = molecular target: T1, AKT1 (Homo sapiens, UniProt P31749); test: AKT Kinase Assay (IMAP fluorescent polarisation) vs AKT1; format: biochemical; settings: activated AKT1, FAM Crosstide substrate
T1 construct: purchased SignalChem
Summary of the method: (§1)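 Each activated AKT isoform, at a pre-determined linear-range concentration, was pre-incubated 45 min at room temperature with compound in a fourteen-point half-log series. ATP plus 5′FAM-Crosstide then reacted 1 h; IMAP binding reagent stopped it (1 h). Fluorescence polarisation (ex 485/em 528 nm) versus vehicle gave IC50 by non-linear regression.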

AKT2 = molecular target: T2, AKT2 (Homo sapiens, UniProt P31751); test: AKT Kinase Assay (IMAP fluorescent polarisation) vs AKT2; format: biochemical; settings: activated AKT2, FAM Crosstide substrate
T2 construct: purchased SignalChem
Summary of the method: as §1

AKT3 = molecular target: T3, AKT3 (Homo sapiens, UniProt Q9Y243); test: AKT Kinase Assay (IMAP fluorescent polarisation) vs AKT3; format: biochemical; settings: activated AKT3, FAM Crosstide substrate
T3 construct: purchased SignalChem
Summary of the method: as §1

[1] = tested on: PC3 and/or LnCaP cell lines; test: In vitro cell proliferation assay (Cell Titre Glo); format: cell-based; settings: Homo sapiens, 72 hours, read-out: inhibition of proliferation IC50
Experimental: Testing of the compounds was also performed using in vitro cell proliferation assays:
Cell Titre Glo (Promega) is a highly sensitive homogeneous reagent used to determine the viability of cells. The reagent uses a stable form of luciferase to measure ATP as an output of viability. The luminescent values generated in the assay are directly proportional to the number of viable cells in your assay.
The following materials were used: White, clear bottomed 96 well assay plates (Costar); Cell titre Glo reagents; LnCaP (ECACC) cells grown in RPMI medium (Invitrogen) supplemented with 10 mM HEPES (Invitrogen), 1 mM Sodium pyruvate (Invitrogen), 2 mM L-Glutamine (Invitrogen) and 10% Foetal calf serum (Invitrogen); PC3 (ECACC) cells grown in RPMI medium supplemented with 10% Foetal calf serum (Invitrogen); Trypsin (Invitrogen); PBS (Invitrogen); Biotek Synergy 4 Hybrid Plate reader; 96 well plate shaker (Stuart SSL5); Eppendorf 5414 desk-top centrifuge; Beckman Coulter cell counter Z1 single threshold system.
Prostate cell lines, PC3 and LnCaP, were washed, detached and re-suspended in their respective fresh media. The cells were pelleted by centrifugation (Eppendorf 5414) and spent supernatant discarded. The cells were re-suspended by vortex mixing, counted and seeded into clear bottom white 96 well plates at a density of 5000 cells per well. The cells were incubated (Sanyo) overnight at 37° C. ([…]/5% CO2), and next day treated with increasing concentrations of test compound formulated in fresh medium. The plates were returned to the incubator for 72 hours.
Cell Titre Glo (Promega) was prepared by mixing the supplied reagents as per manufacturer's instructions and left to stand at room temperature. The cell plates were removed from the incubator and 80 μl of the Cell Titre Glo solution added to each well. The plate was shaken for five minutes to ensure homogenous mixing of reagents and cells, then left to stand for ten minutes at room temperature.
The cell viability post compound treatment was determined by the luminescent intensity emitted from the drug treated wells in the plate. In brief, the assay plate was placed in the Biotex Synergy 4 Hybrid plate reader and the luminescence read in each well. The compound treated wells were compared to vehicle treated wells and the % inhibition of cell viability calculated.
The data was analysed using GraphPad Prism, with IC50 values generated using non-linear regression of the data set.

T1 sequence (P31749 whole entry): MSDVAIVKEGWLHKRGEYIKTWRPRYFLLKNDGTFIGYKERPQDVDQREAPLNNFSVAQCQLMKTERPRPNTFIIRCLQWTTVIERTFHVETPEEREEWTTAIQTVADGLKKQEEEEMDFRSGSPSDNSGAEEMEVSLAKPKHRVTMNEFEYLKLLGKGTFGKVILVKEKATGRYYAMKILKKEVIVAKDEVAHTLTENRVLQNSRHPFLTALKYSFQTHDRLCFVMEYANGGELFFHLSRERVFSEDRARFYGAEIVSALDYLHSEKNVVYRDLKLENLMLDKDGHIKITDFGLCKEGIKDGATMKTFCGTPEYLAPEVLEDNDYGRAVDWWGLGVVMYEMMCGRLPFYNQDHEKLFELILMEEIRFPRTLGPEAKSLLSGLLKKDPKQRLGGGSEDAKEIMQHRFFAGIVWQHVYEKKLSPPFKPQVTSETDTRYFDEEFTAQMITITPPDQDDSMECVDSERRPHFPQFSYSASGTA
T2 sequence (P31751 whole entry): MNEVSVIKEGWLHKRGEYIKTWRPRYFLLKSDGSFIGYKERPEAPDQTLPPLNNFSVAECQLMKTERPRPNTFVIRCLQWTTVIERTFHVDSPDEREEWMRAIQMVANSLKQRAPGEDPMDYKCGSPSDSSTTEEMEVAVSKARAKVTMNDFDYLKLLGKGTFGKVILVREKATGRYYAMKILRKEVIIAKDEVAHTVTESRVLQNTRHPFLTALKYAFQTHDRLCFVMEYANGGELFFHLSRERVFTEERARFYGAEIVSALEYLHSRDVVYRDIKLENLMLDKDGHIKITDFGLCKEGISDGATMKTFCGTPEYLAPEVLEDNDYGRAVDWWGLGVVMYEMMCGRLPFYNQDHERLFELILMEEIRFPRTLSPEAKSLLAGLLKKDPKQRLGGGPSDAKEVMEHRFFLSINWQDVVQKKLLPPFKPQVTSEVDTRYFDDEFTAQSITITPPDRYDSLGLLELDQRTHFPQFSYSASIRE
T3 sequence (Q9Y243 whole entry): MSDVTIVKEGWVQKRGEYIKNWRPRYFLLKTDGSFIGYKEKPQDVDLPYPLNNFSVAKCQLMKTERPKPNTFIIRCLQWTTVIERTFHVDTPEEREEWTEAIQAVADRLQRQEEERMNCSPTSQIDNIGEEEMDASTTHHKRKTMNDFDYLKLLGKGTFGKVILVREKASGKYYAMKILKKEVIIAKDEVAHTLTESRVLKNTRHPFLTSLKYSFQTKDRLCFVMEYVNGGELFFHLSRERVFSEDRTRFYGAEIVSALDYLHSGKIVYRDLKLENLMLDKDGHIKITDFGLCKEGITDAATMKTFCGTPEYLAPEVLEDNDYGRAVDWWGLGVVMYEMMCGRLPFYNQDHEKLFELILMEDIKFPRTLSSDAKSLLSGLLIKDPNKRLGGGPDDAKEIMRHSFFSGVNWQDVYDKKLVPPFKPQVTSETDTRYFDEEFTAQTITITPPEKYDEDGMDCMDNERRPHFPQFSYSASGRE

SMILES	IC50 (AKT1)	IC50 (AKT2)	IC50 (AKT3)	IC50 [1]
NC1(c2ccc(-c3oc4ccncc4c3-c3ccccc3)cc2)CCC1 [Example 1, 1-(4-(3-phenylfuro[3,2-c]pyridin-2-yl)phenyl)cyclobutanamine]	1000 to 10000 nM	1000 to 10000 nM	1000 to 10000 nM	< 10000 nM
NC1(c2ccc(-c3oc4nccnc4c3-c3ccccc3)cc2)CCC1 [Example 10, 1-(4-(7-Phenylfuro[2,3-b]pyrazin-6-yl)phenyl)cyclobutanamine.HCl]	1000 to 10000 nM	1000 to 10000 nM	> 10000 nM	< 10000 nM
NC1(c2ccc(-c3oc4nc[nH]c(=O)c4c3-c3ccccc3)cc2)CCC1 [Example 12, 6-(4-(1-Aminocyclobutyl)phenyl)-5-phenylfuro[2,3-d]pyrimidin-4(3H)-one]	1000 to 10000 nM	1000 to 10000 nM	1000 to 10000 nM	< 10000 nM
CSc1ncc2c(-c3ccccc3)c(-c3ccc(C4(N)CCC4)cc3)oc2n1 [Example 24, 1-(4-(2-(Methylthio)-5-phenylfuro[2,3-d]pyrimidin-6-yl)phenyl)cyclobutanamine]	1000 to 10000 nM	100 to 1000 nM	> 10000 nM	< 10000 nM
CNc1nc(OC)c2c(-c3ccccc3)c(-c3ccc(C4(N)CCC4)cc3)oc2n1 [Example 32, 6-(4-(1-Aminocyclobutyl)phenyl)-4-methoxy-N-methyl-5-phenylfuro[2,3-d]pyrimidin-2-amine]	≤ 100 nM	100 to 1000 nM	> 10000 nM	< 10000 nM
COc1nc(OCCO)nc2oc(-c3ccc(C4(N)CCC4)cc3)c(-c3ccccc3)c12 [Example 36, 2-((6-(4-(1-Aminocyclobutyl)phenyl)-4-methoxy-5-phenylfuro[2,3-d]pyrimidin-2-yl)oxy)ethanol]	≤ 100 nM	100 to 1000 nM	> 10000 nM	< 10000 nM
COc1nc(N2CCNCC2)nc2oc(-c3ccc(C4(N)CCC4)cc3)c(-c3ccccc3)c12 [Example 37, 1-(4-(4-Methoxy-5-phenyl-2-(piperazin-1-yl)furo[2,3-d]pyrimidin-6-yl)phenyl)cyclobutanamine]	100 to 1000 nM	100 to 1000 nM	1000 to 10000 nM	< 10000 nM
NC1(c2ccc(-c3oc4ncc(C5CC5)nc4c3-c3ccccc3)cc2)CCC1 [Example 138, 1-(4-(2-Cyclopropyl-7-phenylfuro[2,3-b]pyrazin-6-yl)phenyl)cyclobutanamine]	100 to 1000 nM	100 to 1000 nM	1000 to 10000 nM	–
NC1(c2ccc(-c3oc4ncc(-c5ccccc5)nc4c3-c3ccccc3)cc2)CCC1 [Example 139, 1-(4-(2,7-Diphenylfuro[2,3-b]pyrazin-6-yl)phenyl)cyclobutanamine, HCl]	1000 to 10000 nM	1000 to 10000 nM	1000 to 10000 nM	–
NC1(c2ccc(-c3oc4ncc(-c5cncnc5)nc4c3-c3ccccc3)cc2)CCC1 [Example 140, 1-(4-(7-Phenyl-2-(pyrimidin-5-yl)furo[2,3-b]pyrazin-6-yl)phenyl)cyclobutanamine]	1000 to 10000 nM	100 to 1000 nM	> 10000 nM	–
NC1(c2ccc(-c3oc4ncc(-c5ccccn5)nc4c3-c3ccccc3)cc2)CCC1 [Example 141, 1-(4-(7-Phenyl-2-(pyridin-2-yl)furo[2,3-b]pyrazin-6-yl)phenyl)cyclobutanamine]	1000 to 10000 nM	1000 to 10000 nM	> 10000 nM	–
NC1(c2ccc(-c3oc4ncc(COCc5ccccc5)nc4c3-c3ccccc3)cc2)CCC1 [Example 142, 1-(4-(2-(Benzyloxymethyl)-7-phenylfuro[2,3-b]pyrazin-6-yl)phenyl)cyclobutanamine]	100 to 1000 nM	100 to 1000 nM	1000 to 10000 nM	–
Cc1n[nH]c(C)c1-c1cnc2oc(-c3ccc(C4(N)CCC4)cc3)c(-c3ccccc3)c2n1 [Example 143, 1-(4-(2-(3,5-Dimethyl-1H-pyrazol-4-yl)-7-phenylfuro[2,3-b]pyrazin-6-yl)phenyl)cyclobutanamine]	1000 to 10000 nM	1000 to 10000 nM	> 10000 nM	–
NC1(c2ccc(-c3oc4ncc(-c5ccn[nH]5)nc4c3-c3ccccc3)cc2)CCC1 [Example 144, 1-(4-(7-Phenyl-2-(1H-pyrazol-5-yl)furo[2,3-b]pyrazin-6-yl)phenyl)cyclobutanamine]	1000 to 10000 nM	1000 to 10000 nM	> 10000 nM	–
NC1(c2ccc(-c3oc4ncc(CO)nc4c3-c3ccccc3)cc2)CCC1 [Example 145, (6-(4-(1-Aminocyclobutyl)phenyl)-7-phenylfuro[2,3-b]pyrazin-2-yl)methanol]	1000 to 10000 nM	1000 to 10000 nM	> 10000 nM	–

Next, values leading:

IC50 (AKT1)	IC50 (AKT2)	IC50 (AKT3)	IC50 [1]	SMILES
1000 to 10000 nM	1000 to 10000 nM	> 10000 nM	–	C#Cc1cnc2oc(-c3ccc(C4(N)CCC4)cc3)c(-c3ccccc3)c2n1 [Example 146, 1-(4-(2-Ethynyl-7-phenylfuro[2,3-b]pyrazin-6-yl)phenyl)cyclobutanamine]
1000 to 10000 nM	1000 to 10000 nM	> 10000 nM	–	NC1(c2ccc(-c3oc4ncc(-c5cnn[nH]5)nc4c3-c3ccccc3)cc2)CCC1 [Example 147, 1-(4-(7-Phenyl-2-(1H-1,2,3-triazol-5-yl)furo[2,3-b]pyrazin-6-yl)phenyl)cyclobutanamine]
100 to 1000 nM	1000 to 10000 nM	> 10000 nM	–	NC1(c2ccc(-c3oc4ncc(NCCO)nc4c3-c3ccccc3)cc2)CCC1 [Example 148, 2-(6-(4-(1-Aminocyclobutyl)phenyl)-7-phenylfuro[2,3-b]pyrazin-2-ylamino)ethanol]
100 to 1000 nM	1000 to 10000 nM	> 10000 nM	–	Cc1cnc2oc(-c3ccc(C4(N)CCC4)cc3)c(-c3ccccc3)c2n1 [Example 149, 1-(4-(2-Methyl-7-phenylfuro[2,3-b]pyrazin-6-yl)phenyl)cyclobutanamine]
1000 to 10000 nM	100 to 1000 nM	> 10000 nM	–	NC1(c2ccc(-c3oc4ncc(-c5cccnc5)nc4c3-c3ccccc3)cc2)CCC1 [Example 150, 1-(4-(7-Phenyl-2-(pyridin-3-yl)furo[2,3-b]pyrazin-6-yl)phenyl)cyclobutanamine, 2HCl]
1000 to 10000 nM	1000 to 10000 nM	> 10000 nM	–	CC(=O)Nc1cccc(-c2cnc3oc(-c4ccc(C5(N)CCC5)cc4)c(-c4ccccc4)c3n2)c1 [Example 151, N-(3-(6-(4-(1-Aminocyclobutyl)phenyl)-7-phenylfuro[2,3-b]pyrazin-2-yl)phenyl)acetamide, HCl]
100 to 1000 nM	1000 to 10000 nM	> 10000 nM	–	NC(=O)c1cccc(-c2cnc3oc(-c4ccc(C5(N)CCC5)cc4)c(-c4ccccc4)c3n2)c1 [Example 152, 3-(6-(4-(1-Aminocyclobutyl)phenyl)-7-phenylfuro[2,3-b]pyrazin-2-yl)benzamide, HCl]
100 to 1000 nM	100 to 1000 nM	> 10000 nM	–	CSc1cnc2c(-c3ccccc3)c(-c3ccc(C4(N)CCC4)cc3)[nH]c2n1 [Example 153, 1-(4-(3-(Methylthio)-7-phenyl-5H-pyrrolo[3,2-b]pyrazin-6-yl)phenyl)cyclobutanamine]
